Square brackets hold non-standard residues; d marks the D form. Ends that are not written are not given here. Peptide text beside a SMILES is read from it.

The subject of one series is prostate. Nature of the series: In vivo panning of X7 phage library, prostate versus brain. Also on record: species or system mice. The following applies: phage displayed peptide. As to the method:
An X7 library was injected into mice, and sequences isolated that were preferentially found in prostate as compared to brain as described in WO 99/46284.

A further series has as its system normal mouse prostate. Nature of the series: Prostate-selective apoptosis (TUNEL staining). It counts as in vivo. Particulars: single dose of 250 μg peptide/mouse; 24 hours. As to the method:
The ability of the SMSIARL peptide (SEQ ID NO: 207) to deliver a pro-apoptotic peptide, D(KLAKLAK)2, to the prostate was analyzed. Briefly, SMSIARL-GG-D(KLAKLAK)2 chimeric peptide or control material was administered as a single dose of 250 μg peptide/mouse, and TUNEL staining was performed on tissues obtained 24 hours later.

The test system of series [1] is prostate cancer in TRAMP mice. Nature of the series: Treatment of TRAMP mice (transgenic prostate cancer). It counts as in vivo. Particulars: 250 μg/dose; 10 mice per group. As to the method: TRAMP mice develop prostate cancer under the influence of a transgene as described in Gingrich et al., supra, 1996. SMSIARL-GG-D(KLAKLAK)2 chimeric peptide was assayed for the ability to suppress cancer development in the TRAMP mice. Treatment was initiated at 12 weeks of age with mice (10 per group) receiving SMSIARL-GG-D(KLAKLAK)2 peptide or control peptide at 250 μg/dose every other week for a total of 10 doses. Four mice, which had no visible tumor, were eliminated from the SMSIARL-GG-D(KLAKLAK)2 group after dying within minutes after the injection.

A short description of another series: in vitro. It counts as cell-based. The following applies: human; monolayer at 100% confluency; scored at 72 hours; means of three independent experiments; read-out: LC50 DMEC Angiostatic. The procedure:
(§1) The effect of HPP-1 was assayed on normal human dermal microvessel endothelial cells (DMECs) under the angiogenic conditions of proliferation and cord formation. In addition, the effect of HPP-1 was assayed under the angiostatic condition of a monolayer maintained at 100% confluency (as described below).
(§2) Briefly, dermal microvessel endothelial cells (DMECs) were grown in CADMEC Growth Media™ (Cell Applications, Inc.; San Diego, Calif.). Dermal microvessel endothelial cells were then cultured under three experimental conditions: proliferation, 30% confluency in a growth media supplemented with 500 ng/ml human recombinant vascular endothelial growth factor (VEGF; Pharmingen); no proliferation, 100% confluency in media formulated to maintain a monolayer; and cord formation, 60% confluency (required for induction) in media formulated to induce cord formation. The KS1767 and MDA-MB-435 cells were cultured as described in Arap et al., supra, 1998; Hernier et al., supra, 1994).
(§3) Percent viability and LC50 (Table 1) were determined by apoptotic morphology as described in Ellerby et al., J. Neurosci. 17:6165-6178 (1997). For the percent viability assays, dermal microvessel endothelial cells were treated with 60 μM HPP-1 or control peptide D(KLAKLAK)2. At the indicated time points, cell culture medium was aspirated from adherent cells, and the cells were gently washed once with PBS at 37° C. Subsequently, a 20-fold dilution of the dye mixture (100 μg/ml acridine orange and 100 μg/ml ethidium bromide) in PBS was gently pipetted on the cells, which were viewed on an inverted microscope (Nikon TE 300). […] At least 500 cells were scored for a given time point in each experiment. Percent viability was calculated relative to untreated controls. The LC50 for monolayer, proliferation ([…]), and cord formation were scored at 72 hours.

Series [2] is described as follows: Cytotoxicity to eukaryotic cells (lethal concentration for 50% of a cell monolayer). Type of series: cell-based. The following applies: human; lethal concentration required to kill 50% of a cell monolayer; read-out: concentration required to kill eukaryotic cells (LC50). The procedure: (§4) Mild swelling was evident at a concentration of 3 μM, two orders of magnitude less than the concentration required to kill eukaryotic cells (approximately 300 μM), as measured by the lethal concentration required to kill 50% of a cell monolayer (LC50; Table 1).
as §3

For another series, the system named is rat liver mitochondria. In words: Mitochondrial swelling assay (optical absorbance at 520 nm). Type of series: biochemical. The procedure: Mitochondrial swelling assays were performed as follows. Briefly, rat liver mitochondria were prepared as described in Ellerby et al., J. Neurosci. 17:6165-6178 (1997). Peptides were synthesized at higher than 90% purity by HPLC (DLSLARLATARLAI (SEQ ID NO: 204), Coast Scientific, Inc., San Diego, Calif.; all other peptides, AnaSpec, Inc.). Mitochondria were treated with a concentration of 10 μM D(KLAKLAK)2, 10 μM DLSLARLATARLAI negative control peptide (SEQ ID NO: 204), or 200 μM CA^+2 as a positive control. Peptides were added to mitochondria in a cuvette, and swelling was quantified by measuring the optical absorbance at 520 nm.

The subject of series [3] is caspase-3 processing in rat liver mitochondria suspended in normal cytosolic extract. In words: Mitochondria-dependent cell-free apoptosis (caspase-3 processing immunoblot). It counts as biochemical. Particulars: 100 μM peptide, 2 hours, in the presence of mitochondria. As to the method: The D(KLAKLAK)2 peptide was assayed for the ability to activate mitochondria-dependent apoptosis in a cell-free system composed of normal mitochondria suspended in normal cytosolic extract (Ellerby et al., J. Neurosci. 17:6165-6178 (1997)).
The cell-free apoptosis assays were performed essentially as follows. The cell-free systems were reconstituted as described in Ellerby et al., supra, 1997, and, for mitochondria-dependent reactions, rat liver mitochondria were suspended in normal (non-apoptotic) cytosolic extract prepared from dermal microvessel endothelial cells. After adding peptides at a concentration of 100 μM and incubating for 2 hours at 30° C. or 37° C., mitochondria were removed by centrifugation, and the supernatant analyzed by SDS/PAGE immunoblotting on a 12% gel (Biorad; Hercules, Calif.). Proteins were transferred to PVDF membranes (Biorad) and incubated with anti-caspase-3 antibody (Santa Cruz Biotechnology; Santa Cruz, Calif.), followed by ECL detection (Amersham; Arlington Heights, Ill.).

In series [4] the test system is dermal microvessel endothelial cells. Nature of the series: Mitochondrial morphology of proliferating DMECs (MitoTracker Red / DAPI). It counts as cell-based, human. The following applies: 60 μM peptide, 24 hours. As to the method:
Mitochondrial morphology of dermal microvessel endothelial cells was assessed in proliferating cells after treatment with 60 μM HPP-1, […]-GG-D(KLAKLAK)2 or untargeted D(KLAKLAK)2 as follows. Dermal microvessel endothelial cells were stained after 24 and 72 hours treatment with peptide by incubation for 30 min at 37° C. with 100 nM mitochondrial stain MitoTracker Red™ (Molecular Probes, Inc., Eugene Oreg.) and 500 nM of the nuclear stain DAPI (Molecular Probes, Inc.). Mitochondria were subsequently visualized using fluorescence microscopy (100×) under an inverted microscope using a triple wavelength filter set (Nikon).

Series [5] has as its system normal human dermal microvessel endothelial cells (DMECs). Type of series: cell-based. Details: dose or concentration left out as unconfirmed. Particulars: proliferation or cord formation.
For another series, the system named is eukaryotic cells. In words: Cytotoxicity to eukaryotic cells (lethal concentration for 50% of a cell monolayer). It counts as cell-based. The procedure: as §4, §3
Series [6] has as its system breast carcinoma xenografts. In words: Competition of phage homing by co-injected free peptide.
Series [7] deals with normal human dermal microvessel endothelial cells (DMECs). In words: in vitro. It counts as cell-based. Particulars: controls and alternative prototype; data not shown. As to the method: as §1, §2, §3
A further series has as its system bacteria. Particulars: Javadpour et al. 1996; cited from earlier work.
The test system of series [8] is human 435 breast carcinoma tumor. In words: In vivo targeting of RGD phage to breast tumor. Details: species or system nude mice. Particulars: coinjection of 500 μg free peptide. The procedure: Human 435 breast carcinoma cells were inoculated into the mammary fat pad of nude mice. When the tumors attained a diameter of about 1 cm, phage expressing a specific RGD-containing peptide were administered to the tumor bearing mouse. Similar results to those discussed below also were obtained with nude mice bearing tumors formed by implantation of human melanoma C8161 cells or by implantation of mouse B16 melanoma cells.
1×10^9 phage expressing the RGD-containing peptide, […] (SEQ ID NO: 1; see, Koivunen et al., supra, 1995) or control (insertless) phage were injected intravenously (iv) into the mice and allowed to circulate for 4 min. The mice then were snap frozen or perfused through the heart while under anesthesia, and various organs, including tumor, brain and kidney, were removed and the phage present in the organs was quantitated (see U.S. Pat. No. 5,622,699; Pasqualini and Ruoslahti, supra, 1996).

The next series relates to prostate tissue. Nature of the series: Prostate homing of SMSIARL phage after intravenous injection. The following applies: coinjection. It counts as in vivo, mice. An excerpt:
Using in vivo screening of a heptapeptide phage library, a prostate-homing peptide has been identified that concentrates in the prostate 35-fold more than in various other tissues.

For the compound VSFLEYR [prostate homing peptide], in the series with prostate, the “enrichment in prostate as compared to brain” value came out at 17 fold.

Take `CC[C@H](C)[C@H](NC(=O)[C@H](CO)NC(=O)[C@H](CCSC)NC(=O)[C@@H](N)CO)C(=O)N[C@@H](C)C(=O)N[C@@H](CCCNC(=N)N)C(=O)N[C@@H](CC(C)C)C(=O)NCC(=O)NCC(=O)N[C@H](CCCCN)C(=O)N[C@H](CC(C)C)C(=O)N[C@H](C)C(=O)N[C@H](CCCCN)C(=O)N[C@H](CC(C)C)C(=O)N[C@H](C)C(=O)N[C@H](CCCCN)C(=O)N[C@H](CCCCN)C(=O)N[C@H](CC(C)C)C(=O)N[C@H](C)C(=O)N[C@H](CCCCN)C(=O)N[C@H](CC(C)C)C(=O)N[C@H](C)C(=O)N[C@H](CCCCN)C(=O)O` [SMSIARL-GG-D(KLAKLAK)2] (H-SMSIARLGG[dK][dL][dA][dK][dL][dA][dK][dK][dL][dA][dK][dL][dA][dK]-OH): the “apoptosis in other tissues such as testis, kidney or brain (TUNEL)” value with normal mouse prostate is “no evidence of increased apoptosis”. Moreover, the “mice dying within minutes after the injection” value in series [1] is reported as “Four”.

In the case of `CC(C)C[C@@H](NC(=O)[C@H](N)CCCCN)C(=O)N[C@H](C)C(=O)N[C@H](CCCCN)C(=O)N[C@H](CC(C)C)C(=O)N[C@H](C)C(=O)N[C@H](CCCCN)C(=O)N[C@H](CCCCN)C(=O)N[C@H](CC(C)C)C(=O)N[C@H](C)C(=O)N[C@H](CCCCN)C(=O)N[C@H](CC(C)C)C(=O)N[C@H](C)C(=O)N[C@H](CCCCN)C(=O)O` [D(KLAKLAK)2], the values for the CC50 at 72 h (in “in vitro”; in [2]) were 492 µM and about 300 µM, respectively. Also, the mitochondrial swelling result was “Mild swelling” in the series with rat liver mitochondria (3 μM peptide) and “marked mitochondrial swelling” with rat liver mitochondria (10 μM peptide). In series [3], the “caspase-3 processing in cell-free system” value was “characteristic caspase-3 processing the active protease was observed”. The mitochondrial morphology entry in series [4] is “remained morphologically normal”. In [5], the “percent viability with time relative to untreated controls” value is “negligible loss in viability”.

With “DLSLARLATARLAI [non-α-helix forming negative control peptide]”, in the series on eukaryotic cells, the “lethality to eukaryotic cells” value is given as “not lethal”. The mitochondrial swelling entry with rat liver mitochondria (10 μM peptide) is on record as “did not induce mitochondrial swelling”. The “caspase-3 processing in cell-free system” value in series [3] was “inactive”.

Turning to “CNGRC (not fully specified; cysteine pairing not given here)”, the “effect of co-injected peptide on homing of […] phage” value in series [6] is “did not inhibit”. In addition, the “effect of co-injected peptide on accumulation of NGR phage in tumor” value in [6] (phage expressing CNGRCVSGCAGRC) is “inhibited”.

With “CGRNC-GG-D(KLAKLAK)2 [reference compound]”, the “effect on viability of dermal microvessel endothelial cells, compared with other peptide” value in series [7] is given as “results similar to D(KLAKLAK) 2”.

Regarding “KLAKLAKKLAKLAK [synthetic antimicrobial 14-mer of Javadpour et al]”, the “concentration that kills bacteria relative to concentration required to kill eukaryotic cells” value in the series with bacteria is given as “two orders of magnitude lower”.

With GRGESP, the “reduction of phage in the tumor by coinjected free peptide” value in series [8] is “essentially had no effect”.

As for SMSIARL [prostate homing peptide], in the series on prostate, the “enrichment in prostate as compared to brain” value was 34 fold. Also, the “effect of coinjected synthetic peptide on prostate-selective phage homing” value with prostate tissue is “inhibited the prostate-selective homing of phage”.

Consider “CARAC-GG-D(KLAKLAK)2 [reference compound]”, for which the “effect on viability of dermal microvessel endothelial cells, compared with other peptide” value in series [7] is “results similar to D(KLAKLAK) 2”.
